From patent US20030040510A1, “Selective estrogen receptor modulators in combination with estrogens” (Endorecherche, Inc., priority 2000, published 2003) come the findings set out here.

In one assay the test system is ZR-75-1 breast tumors. Description: Growth and response category of human ZR-75-1 breast tumors in OVX nude mice, 7 antiestrogens, 161 days (Example 8). The class given is in vivo.
The subject of assay [1] is ovariectomized rats supplemented with 17β-estradiol. Description: EM-652.HCl with oral 17β-estradiol for 2 weeks in OVX rats: uterus, endometrial epithelium, vagina, serum cholesterol (Example 10). The class given is in vivo, Sprague-Dawley rats. The note with it: for Reversal of the effect of E2 on uterine weight: 2 weeks. As for the experimental part:
Ten to twelve week-old female Sprague-Dawley rats (Crl:CD(SD)Br) (Charles River Laboratory, St-Constant, Canada) weighing 215-265 g at time of ovariectomy were used. The animals were housed individually in an environmentally-controlled room (temperature: 22±3° C.; humidity: 50±20%; 12-h light-12-h dark cycles, lights on at 07:15 h). The animals were allowed free access to tap water and a certified rodent feed (Lab Diet 5002 (pellet), Ralston Purina, St-Louis, Mo.). The experiment was conducted in an animal facility approved by the Canadian Council on Animal Care (CCAC) and the Association for Assessment and Accreditation of Laboratory Animal Care (AAALAC) in accordance with the CCAC Guide for Care and Use of Experimental Animals.
On the first day of the study, the animals of the appropriate groups were bilaterally ovariectomized (OVX) under isoflurane anesthesia. The tested compounds were then given once daily by oral gavage as a suspension in 0.4% methylcellulose (0.5 ml/rat) from day 1 to day 14 of the study. Animals of groups 1 and 2 received the vehicle alone during the same time period. On day 15 of the study, 4 animals per group were perfused with 10% buffered formalin and tissues were processed for histological examination. The other animals were killed by exsanguination at the abdominal aorta under isoflurane anesthesia. The uterus and vagina were removed, stripped of remaining fat and weighed. A specimen from each uterus was fixed in 10% buffered formalin for determination of the height of endometrial epithelial cells using a computerized-assisted program (Software Image-Pro Plus).
Total cholesterol was measured on serum samples collected from overnight fasted animals using a Boehringer Mannheim Diagnostic Hitachi 911 Analyzer (Boehringer Mannheim Diagnostic Laboratory Systems).

Where [2] appears, read: 50 μg daily + estrone, 161 days.
Setting [3] is: EM-652.HCl 3 mg/kg + E2 2 mg/kg.
Setting [4] is: EM-652.HCl 10 mg/kg + E2 2 mg/kg.

For `CC1=C(c2ccc(O)cc2)[C@H](c2ccc(OCCN3CCCCC3)cc2)Oc2cc(O)ccc21.Cl` [EM-652.HCl, (S)-(+)-7-hydroxy-3-(4′-hydroxyphenyl)-4-methyl-2-(4″-(2′″-piperidinoethoxy)phenyl)-2H-1-benzopyran hydrochloride], in the assay with ZR-75-1 breast tumors (setting [2]), the “Complete response, of tumors” value was found to be 17%; the “Partial response, of tumors” value was determined as 17%; the Progressing tumors is listed as 7%; the “Stable response, of tumors” value was 60%. In addition, the “Effect on estrone-stimulated tumor growth” value in the assay with ZR-75-1 breast tumors (50 μg daily oral + estrone, 23 weeks) is recorded as “completely prevented tumor growth”. In addition, the “Change of ZR-75-1 tumor size compared to the OVX control group” value in the assay on ZR-75-1 breast tumors (200 μg daily alone, absence of estrone, 161 days) is reported as “did not significantly change”. Further, in assay [1] (EM-652.HCl 0.01 mg/kg to 0.3 mg/kg), the “Effect on the inhibitory action of E2 on serum cholesterol” value is given as “no statistically significant effect”. In addition, in assay [1] (EM-652.HCl 1.0 mg/kg), the “Reduction of the effect of E2 on serum cholesterol” value (“Reduction of the effect of E2” below) turned out to be 36%. Besides, in assay [1] (EM-652.HCl 3.0 mg/kg), the “Reduction of the effect of E2” value was determined as 30%. In assay [1] (setting [3]), the “Prevention of E2-stimulated endometrial epithelial height” value was found to be 83% and the “Reversal of the effect of E2 on uterine weight” value is given as 84%. In addition, the “Inhibition of the stimulatory effect of E2 on vaginal weight” value in assay [1] (EM-652.HCl 3 mg/kg, statistically non significant) turned out to be 50%. In assay [1] (EM-652.HCl 10 mg/kg), the “Effect on the effect of E2 on vaginal weight” value is on record as “complete reversal” and the “Reduction of the effect of E2” value was found to be 50%. In assay [1] (setting [4]), the “Prevention of E2-stimulated endometrial epithelial height” value was 93% and the “Reversal of the effect of E2 on uterine weight” value was found to be 87%. In addition, the “Inhibitory effect on E2-stimulated vaginal weight” value in assay [1] (EM-652.HCl up to 1 mg/kg) is recorded as “no significant inhibitory effect”.
